# Where “and” joins values, the source holds several entries; their conditions need not be identical. Identical values can stand only once.
# Tested on: winter wheat (Vershin variety)
# Test: Winter wheat seed treatment with BHMPA salts: germinating power (length and mass of roots and sprouts)
# Assay type: in vivo
# In short: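 Seeds (50 per Petri dish on two layers of filter paper) soaked 1 h in BHMPA or its Ca, Mg, Na, Co, Mn, Cu or Zn salts at 1·10^−6-1·10^−12%, with water controls. Germination energy read on day 4, germination on day 8 (wheat) or day 7 (rice, corn), as % means of four replicates. Germinating power taken as root and sprout length plus wet and dry mass per 100 seedlings.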
# [1] = comparative study, 1·10^−9% solution
substance,measurement,setting,value
Copper BHMPA Salt [Cu-salt],effectiveness on germinating power,1·10^−6% and 1·10^−12% solutions,weren't effective
same,"Length, root",1·10^−6% solution,4.6 cm
same,"Length, root, + % to control",1·10^−6% solution,−4%
same,"Length, sprout",1·10^−6% solution,3.8 cm
same,"Length, sprout, + % to control",1·10^−6% solution,−5%
same,"Mass, dry, root",1·10^−6% solution,0.41 g/100 plantlings
same,"Mass, dry, root, + % to control",1·10^−6% solution,−2%
same,"Mass, dry, sprout",1·10^−6% solution,0.35 g/100 plantlings
same,"Mass, dry, sprout, + % to control",1·10^−6% solution,−5%
same,"Mass, wet, root",1·10^−6% solution,2.61 g/100 plantlings
same,"Mass, wet, root, + % to control",1·10^−6% solution,−7%
same,"Mass, wet, sprout",1·10^−6% solution,2.70 g/100 plantlings
same,"Mass, wet, sprout, + % to control",1·10^−6% solution,1.5%
same,"Length, root",1·10^−7% solution,4.9 cm
same,"Length, root, + % to control",1·10^−7% solution,2%
same,"Length, sprout",1·10^−7% solution,4.0 cm
same,"Length, sprout, + % to control",1·10^−7% solution,0%
same,"Mass, dry, root",1·10^−7% solution,0.44 g/100 plantlings
same,"Mass, dry, root, + % to control",1·10^−7% solution,2%
same,"Mass, dry, sprout",1·10^−7% solution,0.40 g/100 plantlings
same,"Mass, dry, sprout, + % to control",1·10^−7% solution,8%
same,"Mass, wet, root",1·10^−7% solution,3.35 g/100 plantlings
same,"Mass, wet, root, + % to control",1·10^−7% solution,19%
same,"Mass, wet, sprout",1·10^−7% solution,3.05 g/100 plantlings
same,"Mass, wet, sprout, + % to control",1·10^−7% solution,15%
same,"Length, root",1·10^−8% solution,5.1 cm
same,"Length, root, + % to control",1·10^−8% solution,6%
same,"Length, sprout",1·10^−8% solution,4.1 cm
same,"Length, sprout, + % to control",1·10^−8% solution,2.5%
same,"Mass, dry, root",1·10^−8% solution,0.47 g/100 plantlings
same,"Mass, dry, root, + % to control",1·10^−8% solution,9%
same,"Mass, dry, sprout",1·10^−8% solution,0.46 g/100 plantlings
same,"Mass, dry, sprout, + % to control",1·10^−8% solution,24%
same,"Mass, wet, root",1·10^−8% solution,3.68 g/100 plantlings
same,"Mass, wet, root, + % to control",1·10^−8% solution,31%
same,"Mass, wet, sprout",1·10^−8% solution,3.22 g/100 plantlings
same,"Mass, wet, sprout, + % to control",1·10^−8% solution,21%
same,"Length, root",1·10^−9% solution,5.6 cm
same,"Length, root, + % to control",1·10^−9% solution,17%
same,"Length, sprout",1·10^−9% solution,4.7 cm
same,"Length, sprout, + % to control",1·10^−9% solution,17% and 17.5%
same,"Mass, dry, root",1·10^−9% solution,0.60 g/100 plantlings
same,"Mass, dry, root, + % to control",1·10^−9% solution,39.5%
same,"Mass, dry, sprout",1·10^−9% solution,0.50 g/100 plantlings
same,"Mass, dry, sprout, + % to control",1·10^−9% solution,35%
same,"Mass, wet, root",1·10^−9% solution,4.13 g/100 plantlings
same,"Mass, wet, root, + % to control",1·10^−9% solution,47%
same,"Mass, wet, sprout",1·10^−9% solution,3.61 g/100 plantlings
same,"Mass, wet, sprout, + % to control",1·10^−9% solution,36%
same,"Length, root",1·10^−10% solution,5.3 cm
same,"Length, root, + % to control",1·10^−10% solution,10%
same,"Length, sprout",1·10^−10% solution,4.4 cm
same,"Length, sprout, + % to control",1·10^−10% solution,10%
same,"Mass, dry, root",1·10^−10% solution,0.49 g/100 plantlings
same,"Mass, dry, root, + % to control",1·10^−10% solution,14%
same,"Mass, dry, sprout",1·10^−10% solution,0.48 g/100 plantlings
same,"Mass, dry, sprout, + % to control",1·10^−10% solution,30%
same,"Mass, wet, root",1·10^−10% solution,3.75 g/100 plantlings
same,"Mass, wet, root, + % to control",1·10^−10% solution,33.5%
same,"Mass, wet, sprout",1·10^−10% solution,3.34 g/100 plantlings
same,"Mass, wet, sprout, + % to control",1·10^−10% solution,25.5%
same,"Length, root",1·10^−11% solution,5.1 cm
same,"Length, root, + % to control",1·10^−11% solution,6%
same,"Length, sprout",1·10^−11% solution,4.1 cm
same,"Length, sprout, + % to control",1·10^−11% solution,2.5%
same,"Mass, dry, root",1·10^−11% solution,0.46 g/100 plantlings
same,"Mass, dry, root, + % to control",1·10^−11% solution,7%
same,"Mass, dry, sprout",1·10^−11% solution,0.46 g/100 plantlings
same,"Mass, dry, sprout, + % to control",1·10^−11% solution,24%
same,"Mass, wet, root",1·10^−11% solution,3.44 g/100 plantlings
same,"Mass, wet, root, + % to control",1·10^−11% solution,11%
same,"Mass, wet, sprout",1·10^−11% solution,3.20 g/100 plantlings
same,"Mass, wet, sprout, + % to control",1·10^−11% solution,20%
same,"Length, root",1·10^−12% solution,4.8 cm
same,"Length, root, + % to control",1·10^−12% solution,0%
same,"Length, sprout",1·10^−12% solution,4.0 cm
same,"Length, sprout, + % to control",1·10^−12% solution,0%
same,"Mass, dry, root",1·10^−12% solution,0.41 g/100 plantlings
same,"Mass, dry, root, + % to control",1·10^−12% solution,−2%
same,"Mass, dry, sprout",1·10^−12% solution,0.42 g/100 plantlings
same,"Mass, dry, sprout, + % to control",1·10^−12% solution,13.5%
same,"Mass, wet, root",1·10^−12% solution,3.01 g/100 plantlings
same,"Mass, wet, root, + % to control",1·10^−12% solution,7%
same,"Mass, wet, sprout",1·10^−12% solution,2.92 g/100 plantlings
same,"Mass, wet, sprout, + % to control",1·10^−12% solution,10%
same,"Length, root",[1],10.9 cm
same,"Length, root, + % to control",[1],25%
same,"Length, sprout",[1],7.2 cm
same,"Length, sprout, + % to control",[1],16%
same,"Mass, dry, root",[1],0.67 g/100 plantlings
same,"Mass, dry, root, + % to control",[1],8%
same,"Mass, dry, sprout",[1],0.59 g/100 plantlings
same,"Mass, dry, sprout, + % to control",[1],16%
same,"Mass, wet, root",[1],5.45 g/100 plantlings
same,"Mass, wet, root, + % to control",[1],51%
same,"Mass, wet, sprout",[1],5.00 g/100 plantlings
same,"Mass, wet, sprout, + % to control",[1],26%
